Data published in patent US20260297060A1, “COMPOUNDS FOR THE DEGRADATION OF MUTANT BRAF” (C4 THERAPEUTICS, INC., priority 2023, published 2026).
Like-named read-outs stand apart in the source and are kept apart here.

Test: Pharmacokinetics after 21 days dosing in the efficacy study (plasma, tumor and brain concentrations; plasma AUC at steady state), Example 14
Assay type: in vivo, female BALB/c nude mice
Details: for Concentration in Brain / concentration at 24 h: 24 h; for Concentration in Brain: BQL: below the lower limit of quantitation; for concentration at 4 h / concentration at 24 h / concentration at 0.25 h / concentration at 0.5 h / concentration at 1 h / concentration at 2 h / concentration at 8 h / concentration at 10 h / AUC: mouse, po; for AUC: read-out: Plasma AUC at steady state (Day 21), Average
Experimental: Agents were tested in the A375 human melanoma xenografts. Compound 26 and Compound 141 were administered to BALB/c nude mice bearing A375 tumors from PG-DO and dosed via PO twice a day (BID) or third a day (TIP) or dosed P daily (QD) from PG-D. Dabrafenib was administered to BALB/c nude mice bearing A375 tumors from PG-D1 and dosed via P daily (QD). Compound 26 was dosed at 1.5 mg/kg (QD), 2 mg/kg (TID), 3 mg/kg (BID), 6 mg/kg (QD) and 10 mg/kg (BID) for 21 days. Compound 141 was dosed at 0.75 mg/kg (BID), 1 mg/kg (TID), 1.5 mg/kg (BID), 3 mg/kg (QD) and 5 mg/kg (BID) for 21 days. Dabrafenib was dosed at 100 mg/kg for 21 days. This study was non-GLP.
The plasma samples were collected at predetermined time points for PK analysis. For non-termination plasma collection: the blood samples were collected into the 1.5 mL Eppendorf tubes containing 3 μL of 0.5 M EDTA-K2. And then the anticoagulant blood samples were centrifuged at 2,500 g at 4° C. for 15 minutes. For termination plasma collection: the mice was euthanized at predetermined time points post the treatment, the blood samples were collected into the 1.5 mL Eppendorf tubes containing 15 μL of 0.5 M EDTA-K2. And then the anticoagulant blood samples were centrifuged at 2,500 g at 4° C. for 15 minutes. The plasma samples were separated into 2 aliquots. The 1st was used for PK analysis, and the 2nd was served as backup.
The tumor samples were collected at predetermined time points for PK and WB analysis. The tumor was dissected out and split into 3 parts. The 1st part was used for PK analysis, the 2nd part was used for WB analysis and the last one was used as backup for the study. The samples were transferred into pre-labeled tubes and quickly froze in liquid nitrogen within 2 minutes after dissection. The samples were stored at −80° C. before analysis.
The brain samples were collected at predetermined time points for PK and potential WB analysis. The brain was dissected out and split into 3 parts (left brain, right brain upper and right brain lower), the left brain was used for PK, the right brain upper was used for WB and the last one was used as the backup for the study. The samples were transferred into pre-labeled tubes and quickly froze in liquid nitrogen within 2 minutes after dissection. The samples were stored at −80° C. before analysis.
The harvested plasma and tumor samples were processed for pharmacokinetics analysis by LC-MS/MS with a concentration range of 1.00-1,000 ng/mL for dabrafenib in plasma and 0.0500-50 ng/mL in tumor and brain homogenate, 5.00-10,000 ng/mL for Compound 141 in plasma and 0.200~200 ng/ml in tumor and brain homogenate. 20.0~20,000 ng/mL for Compound 26 in plasma and 0.5~500 ng/mL for Compound 26 tumor and brain homogenate.
Dabrafenib, Compound 26 and Compound 141 in female BALB/c nude mice plasma (K2-EDTA), tumor and brain homogenate were analyzed by LC-MS/MS (Triple Quad 6500+ Low Mass). Verapamil (5 ng/mL) in acetonitrile: methanol (V: V=95:5) was used as the internal standard for Dabrafenib, Compound 26 and Compound 141 in plasma. Verapamil (0.5 ng/mL) in acetonitrile: methanol (V: V=95:5) was used as the internal standard for Dabrafenib, Compound 26 and Compound 141 in tumor and brain homogenate.
An aliquot of 10 μL unknown sample, calibration standard, quality control, dilute quality control, single blank and double blank samples were added to the 96-well plate. Each sample for Dabrafenib, Compound 26 and Compound 141 in plasma (except the double blank) was quenched with 200 μL IS respectively (double blank sample was quenched with 200 μL ACN: MeOH (V: V=95:5)); each sample for Dabrafenib, Compound 26 and Compound 141 in tumor and brain(except the double blank) was quenched with 100 μL IS respectively (double blank sample was quenched with 100 μL ACN: MeOH (V: V=95:5)); and then the mixture was vortex-mixed for 5 min at 800 rpm and centrifuged for 15 min at 3220 g (4000 rpm), 4° C. […]

[1] = plasma, 1.5 mg/kg p.o. BID x 21 days, mean ± SEM
[2] = plasma, 1.5 mg/kg p.o. BID x 21 days, mean ± SEM, read-out: Concentration in Plasma
[3] = plasma, 2 mg/kg p.o. TID x 21 days, mean ± SEM
[4] = plasma, 2 mg/kg p.o. TID x 21 days, mean ± SEM, read-out: Concentration in Plasma
[5] = plasma, 3 mg/kg p.o. BID x 21 days, mean ± SEM
[6] = plasma, 3 mg/kg p.o. BID x 21 days, mean ± SEM, read-out: Concentration in Plasma
[7] = plasma, 6 mg/kg p.o. QD x 21 days, mean ± SEM
[8] = plasma, 6 mg/kg p.o. QD x 21 days, mean ± SEM, read-out: Concentration in Plasma
[9] = plasma, 10 mg/kg p.o. BID x 21 days, mean ± SEM
[10] = plasma, 10 mg/kg p.o. BID x 21 days, mean ± SEM, read-out: Concentration in Plasma
[11] = tumor, 1.5 mg/kg p.o. BID x 21 days, mean ± SEM, read-out: Concentration in Tumor
[12] = tumor, 2 mg/kg p.o. TID x 21 days, mean ± SEM, read-out: Concentration in Tumor
[13] = tumor, 3 mg/kg p.o. BID x 21 days, mean ± SEM, read-out: Concentration in Tumor
[14] = tumor, 6 mg/kg p.o. QD x 21 days, mean ± SEM, read-out: Concentration in Tumor
[15] = tumor, 10 mg/kg p.o. BID x 21 days, mean ± SEM, read-out: Concentration in Tumor

SMILES: CCN(C)S(=O)(=O)Nc1ccc(F)c(Oc2ccc3ncn([C@H]4COC5(CCN(C6CC7(C6)CN(c6cc8c(cc6F)c(N6CCC(=O)NC6=O)nn8C)C7)CC5)C4)c(=O)c3c2)c1C#N [Compound 26, (3R)-3-[6-[2-cyano-3-[[ethyl(methyl)sulfamoyl]amino]-6-fluoro-phenoxy]-4-oxo-quinazolin-3-yl]-8-[2-[3-(2,4-dioxohexahydropyrimidin-1-yl)-5-fluoro-1-methyl-indazol-6-yl]-2-azaspiro[3.3]heptan-6-yl]-1-oxa-8-azaspiro[4.5]decane]
- Concentration in Brain (1.5 mg/kg p.o. BID x 21 days): BQL
- Concentration in Brain (2 mg/kg p.o. TID x 21 days): BQL
- Concentration in Brain (3 mg/kg p.o. BID x 21 days): BQL
- concentration at 4 h (brain, 1.5 mg/kg p.o. BID x 21 days, mean ± SEM, read-out: Concentration in Brain): 28 ± 8.47 ng/g
- concentration at 4 h (brain, 2 mg/kg p.o. TID x 21 days, mean ± SEM, read-out: Concentration in Brain): 51.1 ± 11.5 ng/g
- concentration at 4 h (brain, 3 mg/kg p.o. BID x 21 days, mean ± SEM, read-out: Concentration in Brain): 66.6 ± 4.67 ng/g
- concentration at 4 h (brain, 6 mg/kg p.o. QD x 21 days, mean ± SEM, read-out: Concentration in Brain): 116 ± 8.11 ng/g
- concentration at 24 h (brain, 6 mg/kg p.o. QD x 21 days, read-out: Concentration in Brain): 7.19 ng/g
- concentration at 4 h (brain, 10 mg/kg p.o. BID x 21 days, mean ± SEM, read-out: Concentration in Brain): 233 ± 48.4 ng/g
- concentration at 24 h (brain, 10 mg/kg p.o. BID x 21 days, read-out: Concentration in Brain): 7.79 ng/g
- concentration at 0.25 h [1]: 1330 ± 120 ng/mL
- concentration at 0.5 h [1]: 1910 ± 332 ng/mL
- concentration at 1 h [1]: 3490 ± 364 ng/mL
- concentration at 2 h [1]: 3140 ± 671 ng/mL
- concentration at 4 h [2]: 2160 ± 716 ng/mL
- concentration at 8 h [1]: 912 ± 118 ng/mL
- concentration at 10 h [1]: 694 ± 79.9 ng/mL
- concentration at 24 h [2]: 32.3 ng/mL
- AUC (plasma, 1.5 mg/kg p.o. BID × 21 days): 37400 ng·h/mL
- concentration at 0.25 h [3]: 2630 ± 273 ng/mL
- concentration at 0.5 h [3]: 5750 ± 1100 ng/mL
- concentration at 1 h [3]: 5420 ± 571 ng/mL
- concentration at 2 h [3]: 5110 ± 286 ng/mL
- concentration at 4 h [4]: 3790 ± 666 ng/mL
- concentration at 8 h [3]: 2060 ± 150 ng/mL
- concentration at 10 h [3]: 1550 ± 37.1 ng/mL
- concentration at 24 h [4]: 106 ± 17.7 ng/mL
- AUC (plasma, 2 mg/kg p.o. TID × 21 days): 88300 ng·h/mL
- concentration at 0.25 h [5]: 2490 ± 107 ng/mL
- concentration at 0.5 h [5]: 4860 ± 801 ng/mL
- concentration at 1 h [5]: 5830 ± 591 ng/mL
- concentration at 2 h [5]: 6750 ± 675 ng/mL
- concentration at 4 h [6]: 3970 ± 452 ng/mL
- concentration at 8 h [5]: 3030 ± 252 ng/mL
- concentration at 10 h [5]: 2470 ± 266 ng/mL
- concentration at 24 h [6]: 116 ± 2.4 ng/mL
- AUC (plasma, 3 mg/kg p.o. BID × 21 days): 87900 ng·h/mL
- concentration at 0.25 h [7]: 4440 ± 284 ng/mL
- concentration at 0.5 h [7]: 9990 ± 1160 ng/mL
- concentration at 1 h [7]: 12900 ± 669 ng/mL
- concentration at 2 h [7]: 14600 ± 723 ng/mL
- concentration at 4 h [8]: 8710 ± 1880 ng/mL
- concentration at 8 h [7]: 8220 ± 421 ng/mL
- concentration at 10 h [7]: 6200 ± 192 ng/mL
- concentration at 24 h [8]: 156 ± 10.9 ng/mL
- AUC (plasma, 6 mg/kg p.o. QD × 21 days): 115000 ng·h/mL
- concentration at 0.25 h [9]: 8790 ± 316 ng/mL
- concentration at 0.5 h [9]: 19300 ± 2220 ng/mL
- concentration at 1 h [9]: 20200 ± 2240 ng/mL
- concentration at 2 h [9]: 21300 ± 1560 ng/mL
- concentration at 4 h [10]: 15100 ± 2210 ng/mL
- concentration at 8 h [9]: 10900 ± 379 ng/mL
- concentration at 10 h [9]: 8660 ± 186 ng/mL
- concentration at 24 h [10]: 273 ± 24.8 ng/mL
- AUC (plasma, 10 mg/kg p.o. BID × 21 days): 312000 ng·h/mL
- concentration at 4 h [11]: 392 ± 150 ng/g
- concentration at 24 h [11]: 11.8 ± 1.59 ng/g
- concentration at 4 h [12]: 930 ± 57.3 ng/g
- concentration at 24 h [12]: 80.7 ± 25.2 ng/g
- concentration at 4 h [13]: 1430 ± 159 ng/g
- concentration at 24 h [13]: 54.3 ± 8.91 ng/g
- concentration at 4 h [14]: 2910 ± 459 ng/g
- concentration at 24 h [14]: 338 ± 169 ng/g
- concentration at 4 h [15]: 4250 ± 313 ng/g
- concentration at 24 h [15]: 663 ± 153 ng/g
